Source: patent US12226386B2, “Compositions and methods for treating biofilms” (The Regents of the University of California, priority 2018, dated 2025)

Assays:
[1] = tested on: S. aureus (MRSA) biofilms; assay: in vitro sustained inhibition biofilm assay, bacterial; assay type: cell-based, Staphylococcus aureus
Procedure: In vitro biofilm formation was tested using two assays, sustained inhibition and disruption. Both assays assess biofilm formed on polystyrene plates. The first, tests the effects of amino acid solution on a developing biofilm, while the latter tests the effects of the solution on a pre-formed mature biofilm, both compared to media without supplemented amino acids.
Other amino acids in the blood of animals could combat bacterial and fungal biofilm and therefore may be useful in treating these bacterial and fungal infections that would lie on the external surfaces of infected animals such as humans and could also be used to combat these pathogens on instruments and surfaces that need to be treated. Two types of biofilm assays were performed: a sustained inhibition assay and a disruption assay. The sustained inhibition assay assessed the compound's ability to prevent biofilm development throughout all stages of biofilm formation, while the disruption assay assessed the compound's ability to break up an existing mature biofilm.
(§1) For fungal biofilm assays, all solutions were prepared in RPMI 1640 medium. All bacterial biofilm solutions were prepared in Tryptic Soy Broth (TSB), supplemented with 1% glucose (henceforth referred to as TSB-G). All subsequent procedures were performed in a manner that maintained sterility. A solution of each amino acid to be tested was prepared in weight to volume concentrations ranging from 0.1-5.0%. Amino acids were also tested in combinations. Compound solutions were homogenized with gentle agitation in the dark (4° C., 24 hours) before use.
Bacterial strains were streaked on Blood Agar plates (5% sheep blood in Tryptic Soy Agar) and incubated at 37° C. for 24 hours. A single colony from each strain to be tested was inoculated in a TSB broth and grown for 12 hours, at 37° C. shaking at 225 rpm. For the bacterial biofilm inhibition assays, 1 μL of saturated overnight cell culture was added to either 80 μL of TSB-G, or TSB-G supplemented with the amino acid compound solution to be tested, in a 384-well plate. The cells were allowed to adhere to the plate for 60 minutes at 37° C. without shaking. The media was carefully aspirated and 80 μL of TSB-G, or TSB-G supplemented with the amino acid compound solution was added to the plate. The plate was further incubated for 24 hours at 37° C. without shaking. Media was carefully aspirated and the biofilm was measured by optical density at 600 nm. Eight or twelve replicates were performed for each tested condition and the reported values are normalized to the control (TSB-G media only). For the bacterial biofilm disruption assays, 80 μL of TSB-G was added to the plate, along with 1 μL of overnight cell culture. The cells were allowed to adhere to the plate for 60 minutes at 37° C. with no shaking. The media was carefully aspirated and 80 μL of TSB-G was added to the plate. The plate was further incubated for 24 hours at 37° C. with no shaking. Media was carefully aspirated from the mature biofilm and 80 μL of TSB-G, or TSB-G supplemented with the amino acid to be tested, was gently added to the plate. The plate was further incubated for 24 hours at 37° C. without shaking. Media was aspirated and the biofilm was measured by optical density at 600 nm. Twelve replicates were performed for each tested condition and the reported values are normalized to the control (TSB-G media only).
For inhibition assay, 1 μl of overnight cell culture was added to either 80 μl of TSB-G, or TSB-G supplemented with the amino acid to be tested, in a 384-well plate. The cells were allowed to adhere to the plate for 60 minutes at 37° C. with no shaking. The media was carefully aspirated and 80 μl of TSB-G, or TSB-G supplemented with amino acid was added to the plate. The plate was further incubated for 24 hours at 37° C. with no shaking. Media was carefully aspirated and the biofilm was measured by optical density at 600 nm. […]

C. albicans biofilms = assay: in vitro biofilm disruption assay, fungal; assay type: cell-based, Candida albicans; details: 1% amino acid, p<0.001
Procedure: Two types of biofilm assays were performed: a sustained inhibition assay and a disruption assay.
as §1
Fungal strains were streaked on Yeast Peptone Dextrose (YPD) agar plates and incubated at 30° C. for 48 hours. A single colony from each strain to be tested was inoculated into YPD broth and grown for 12 hours, at 30° C., shaking at 225 rpm. For the fungal biofilm inhibition assay, 1 μl of saturated overnight cell culture was added to either 80 μL of RPMI-1640 or RPMI-1640 supplemented with the amino acid compound solution to be tested, in a 384-well plate. […] Media was carefully aspirated and the biofilm was measured by optical density at 600 nm. Twelve replicates were performed for each tested condition and the reported values are normalized to the control (RPMI-1640 media only). For the fungal biofilm disruption assays, 80 μL of RPMI-1640 was added to the plate, along with 1 μL of overnight cell culture. […] Loosely bound cells were washed once with PBS and 80 μL of RPMI-1640 was added to the plate. […] Media was carefully aspirated from the mature biofilm and 80 μL of RPMI-1640, or RPMI-1640 supplemented with the amino acid compound solution to be tested, was gently added to the plate. […] Media was carefully aspirated and the biofilm was measured by optical density at 600 nm. Twelve replicates were performed for each tested condition and the reported values are normalized to the control (RPMI-1640 media only).
The cells were allowed to adhere to the plate for 90 minutes at 37° C. with shaking (350 rpm). […] The plate was further incubated for 24 hours at 37° C. with shaking (350 rpm). […] The plate was further incubated for 24 hours at 37° C. with shaking (350 rpm). Media was carefully aspirated and the biofilm was measured by optical density at 600 nm.

[2] = sustained inhibition, S. aureus, 1% amino acid, p<0.001

SMILES: N[C@@H](CC(=O)O)C(=O)O [Aspartic Acid, L-aspartic acid]
- Reduce B Biofilm [1, 2]: ●● (two dots [i.e. ●●] signifies major effect (greater than about 30% change))
- Reduce F Biofilm (C. albicans biofilms): ●● (two dots [i.e. ●●] signifies major effect (greater than about 30% change))

SMILES: N[C@@H](CS)C(=O)O [Cysteine, L-cysteine]
- Reduce B Biofilm [1, 2]: ●● (two dots [i.e. ●●] signifies major effect (greater than about 30% change))
- Reduce F Biofilm (C. albicans biofilms): ●● (two dots [i.e. ●●] signifies major effect (greater than about 30% change))

SMILES: N[C@@H](CCC(=O)O)C(=O)O [Glutamic Acid, L-glutamic acid]
- Reduce B Biofilm ([1]; MRSA): ●● (two dots [i.e. ●●] signifies major effect (greater than about 30% change))
- Reduce F Biofilm (C. albicans biofilms): ●● (two dots [i.e. ●●] signifies major effect (greater than about 30% change))
